# Data reported in patent US20210009542A1 (Calico Life Sciences LLC, priority 2018, published 2021).
# Counter-ions that a name gives are not always drawn.
# Biological target: T1, His tagged PTPN2 (TC45) protein (Homo sapiens, UniProt P17706)
# T1 construct: made in house
# T1 sequence (P17706 with tags, fused parts or gaps isoform P17706-2): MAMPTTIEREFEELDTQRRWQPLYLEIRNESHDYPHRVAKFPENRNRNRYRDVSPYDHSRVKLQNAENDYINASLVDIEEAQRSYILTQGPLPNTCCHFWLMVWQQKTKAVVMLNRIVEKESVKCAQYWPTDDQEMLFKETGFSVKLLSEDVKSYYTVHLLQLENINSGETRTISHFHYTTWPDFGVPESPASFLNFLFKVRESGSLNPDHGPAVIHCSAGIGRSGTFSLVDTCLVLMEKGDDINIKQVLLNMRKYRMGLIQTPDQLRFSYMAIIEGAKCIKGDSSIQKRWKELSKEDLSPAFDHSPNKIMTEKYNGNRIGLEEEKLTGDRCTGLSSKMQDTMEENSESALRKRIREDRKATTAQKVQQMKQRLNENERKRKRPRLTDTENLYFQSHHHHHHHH
# Assay: Mobility shift assay (MSA) for potency of PTPN2 inhibitors
# Assay type: biochemical
# Conditions: read-out: PTPN2 MSA IC50
# Procedure: Compound activity was determined using in house His tagged PTPN2 (TC45) protein (SEQ ID NO: 1) in an in vitro enzymatic reaction. The enzymatic assay used to determine activity was a mobility shift assay using a LabChip EZ Reader by Caliper Life Sciences. The enzymatic reaction was carried out in assay buffer (50 mM HEPES pH 7.5, 1 mM EGTA, 10 mM EDTA, 0.01% Tween® 20, and 2 mM DTT). The compounds were dispensed on a white 384 well ProxiPlate™ (PerkinElmer Catalog #6008289) plate using the Labcyte Echo at varying concentrations (12 point, 1:3 dilution). The enzyme (at 0.5 nM) was incubated with compound for 10 minutes at room temperature. Then the substrate (phosphorylated insulin receptor probe sequence: ((OG488)-(NH—CH2—CH2—O—CH2—CH2—O—CH2—CO)-T-R-D-I-(PY)-E-T-D-Y-Y-R-K-K-NH2) (SEQ ID NO: 2) was added at […] to the plates and incubated for another 10 minutes at room temperature. Finally, a quench solution (water and 4-bromo-3-(2-oxo-2-propoxyethoxy)-5-(3-{[1-(phenylmethanesulfonyl)piperidin-4-yl]amino}phenyl)thiophene-2-carboxylic acid) was added to the plates, which were then run on the EZ Reader (excitation 488 nm, emission 530 nm) to measure % conversion (the amount of phosphorylated substrate which was de-phosphorylated by PTPN2). […] The % inhibition was then used to calculate the IC50 values.
row,SMILES,IC50 [nM]
1,"O=C1CN(c2c(O)cc3ccc(OCc4cn[nH]c4)cc3c2F)S(=O)(=O)N1 [Compound 133, 5-{1-fluoro-3-hydroxy-7-[(1H-pyrazol-4-yl)methoxy]naphthalen-2-yl}-1λ6,2,5-thiadiazolidine-1,1,3-trione]",1 to 10
2,"CC(C)COc1ccc2cc(O)c(N3CC(=O)NS3(=O)=O)c(F)c2c1 [Compound 134, 5-[1-fluoro-3-hydroxy-7-(2-methylpropoxy)naphthalen-2-yl]-1λ^6,2,5-thiadiazolidine-1,1,3-trione]",> 100
3,"O=C1CN(c2c(O)cc3ccc(C(=O)NCC4CC4)cc3c2F)S(=O)(=O)N1 [Compound 136, N-(cyclopropylmethyl)-8-fluoro-6-hydroxy-7-(1,1,4-trioxo-1λ^6,2,5-thiadiazolidin-2-yl)naphthalene-2-carboxamide]",1 to 10
4,"O=C1CN(c2c(O)cc3ccc(OCCNCCOC(F)(F)F)cc3c2F)S(=O)(=O)N1 [Compound 137, 5-[1-fluoro-3-hydroxy-7-(2-{[2-(trifluoromethoxy)ethyl]amino}ethoxy)naphthalen-2-yl]-1λ^6,2,5-thiadiazolidine-1,1,3-trione]",1 to 10
5,"COCCNCCOc1ccc2cc(O)c(N3CC(=O)NS3(=O)=O)c(F)c2c1 [Compound 138, 5-(1-fluoro-3-hydroxy-7-{2-[(2-methoxyethyl)amino]ethoxy}naphthalen-2-yl)-1λ^6,2,5-thiadiazolidine-1,1,3-trione]",1 to 10
6,"CNCCCc1ccc2cc(O)c(N3CC(=O)NS3(=O)=O)c(F)c2c1 [Compound 139, 5-{1-fluoro-3-hydroxy-7-[3-(methylamino)propyl]naphthalen-2-yl}-1λ^6,2,5-thiadiazolidine-1,1,3-trione]",1 to 10
7,"CCNCCCc1ccc2cc(O)c(N3CC(=O)NS3(=O)=O)c(F)c2c1 [Compound 140, 5-{7-[3-(ethylamino)propyl]-1-fluoro-3-hydroxynaphthalen-2-yl}-1λ^6,2,5-thiadiazolidine-1,1,3-trione]",1 to 10
8,"O=C1CN(c2c(O)cc3ccc(OCCNC4CC4)cc3c2F)S(=O)(=O)N1 [Compound 142, 5-{7-[2-(cyclopropylamino)ethoxy]-1-fluoro-3-hydroxynaphthalen-2-yl}-1λ^6,2,5-thiadiazolidine-1,1,3-trione]",1 to 10
9,"CNCCOc1ccc2cc(O)c(N3CC(=O)NS3(=O)=O)c(F)c2c1 [Compound 143, 5-{1-fluoro-3-hydroxy-7-[2-(methylamino)ethoxy]naphthalen-2-yl}-1λ^6,2,5-thiadiazolidine-1,1,3-trione]",1 to 10
10,"CCNCCOc1ccc2cc(O)c(N3CC(=O)NS3(=O)=O)c(F)c2c1 [Compound 144, 5-{7-[2-(ethylamino)ethoxy]-1-fluoro-3-hydroxynaphthalen-2-yl}-1λ^6,2,5-thiadiazolidine-1,1,3-trione]",1 to 10
11,"CC(C)NCCOc1ccc2cc(O)c(N3CC(=O)NS3(=O)=O)c(F)c2c1 [Compound 145, 5-(1-fluoro-3-hydroxy-7-{2-[(propan-2-yl)amino]ethoxy}naphthalen-2-yl)-1λ^6,2,5-thiadiazolidine-1,1,3-trione]",10 to 100
12,"CCP(=O)(CC)CCCOc1ccc2cc(O)c(N3CC(=O)NS3(=O)=O)c(F)c2c1 [Compound 146, 5-{7-[3-(diethylphosphoryl)propoxy]-1-fluoro-3-hydroxynaphthalen-2-yl}-1λ^6,2,5-thiadiazolidine-1,1,3-trione]",1 to 10
13,"CC(C)CCNc1ccc2c(F)c(O)c(N3CC(=O)NS3(=O)=O)c(F)c2c1 [Compound 148, 5-{1,4-difluoro-3-hydroxy-7-[(3-methylbutyl)amino]naphthalen-2-yl}-1λ^6,2,5-thiadiazolidine-1,1,3-trione]",1 to 10
14,"C[C@@H](O)CCOc1ccc2cc(O)c(N3CC(=O)NS3(=O)=O)c(F)c2c1 [Compound 149, 5-{1-fluoro-3-hydroxy-7-[(3R)-3-hydroxybutoxy]naphthalen-2-yl}-1λ^6,2,5-thiadiazolidine-1,1,3-trione]",1 to 10
15,"C[C@@H](O)CCCc1ccc2cc(O)c(N3CC(=O)NS3(=O)=O)c(F)c2c1 [Compound 151, 5-{1-fluoro-3-hydroxy-7-[(4R)-4-hydroxypentyl]naphthalen-2-yl}-1λ^6,2,5-thiadiazolidine-1,1,3-trione]",1 to 10
16,"C[C@H](O)CCCc1ccc2cc(O)c(N3CC(=O)NS3(=O)=O)c(F)c2c1 [Compound 153, 5-{1-fluoro-3-hydroxy-7-[(4S)-4-hydroxypentyl]naphthalen-2-yl}-1λ^6,2,5-thiadiazolidine-1,1,3-trione]",1 to 10

row,SMILES,IC50 [nM]
1,"COCC1(CCOc2ccc3cc(O)c(N4CC(=O)NS4(=O)=O)c(F)c3c2)CC1 [Compound 160, 5-(1-fluoro-3-hydroxy-7-{2-[1-(methoxymethyl)cyclopropyl]ethoxy}naphthalen-2-yl)-1λ^6,2,5-thiadiazolidine-1,1,3-trione]",1 to 10
2,"O=C1CN(c2c(O)cc3ccc(CNCC4CC4)cc3c2F)S(=O)(=O)N1 [Compound 161, 5-(7-{[(cyclopropylmethyl)amino]methyl}-1-fluoro-3-hydroxynaphthalen-2-yl)-1λ^6,2,5-thiadiazolidine-1,1,3-trione]",10 to 100
3,"CC(C)OCCNc1ccc2cc(O)c(N3CC(=O)NS3(=O)=O)c(F)c2c1 [Compound 172, 5-[1-fluoro-3-hydroxy-7-({2-[(propan-2-yl)oxy]ethyl}amino)naphthalen-2-yl]-1λ^6,2,5-thiadiazolidine-1,1,3-trione]",1 to 10
4,"O=C1CN(c2c(O)cc3ccc(CCO)cc3c2F)S(=O)(=O)N1 [Compound 175, 5-[1-fluoro-3-hydroxy-7-(2-hydroxyethyl)naphthalen-2-yl]-1λ^6,2,5-thiadiazolidine-1,1,3-trione, Ammonium Salt]",10 to 100
5,"O=C1CN(c2c(O)cc3ccc(OCCCn4cccn4)cc3c2F)S(=O)(=O)N1 [Compound 183, 5-{1-fluoro-3-hydroxy-7-[3-(H-pyrazol-1-yl)propoxy]naphthalen-2-yl}-1λ^6,2,5-thiadiazolidine-1,1,3-trione]",1 to 10
6,"O=C1CN(c2c(O)cc3ccc(CO)cc3c2F)S(=O)(=O)N1 [Compound 185, 5-[1-fluoro-3-hydroxy-7-(hydroxymethyl)naphthalen-2-yl]-1λ^6,2,5-thiadiazolidine-1,1,3-trione]",1 to 10
7,"O=C1CN(c2c(O)cc3ccc(OCCn4cccn4)cc3c2F)S(=O)(=O)N1 [Compound 188, 5-{1-fluoro-3-hydroxy-7-[2-(1H-pyrazol-1-yl)ethoxy]naphthalen-2-yl}-1λ^6,2,5-thiadiazolidine-1,1,3-trione]",1 to 10
8,O=C1CN(c2c(O)cc3ccc(C4CCCO4)cc3c2F)S(=O)(=O)N1 (stereo not shown) [Compound 190],1 to 10
9,"O=C1CN(c2c(O)cc3ccc(C4CCCNC4)cc3c2F)S(=O)(=O)N1 (stereo not shown) [Compound 191, 5-[1-fluoro-3-hydroxy-7-(piperidin-3-yl)naphthalen-2-yl]-1λ^6,2,5-thiadiazolidine-1,1,3-trione]",1 to 10
10,"Nc1cccc(CS(=O)(=O)N2CC=C(c3ccc4cc(O)c(N5CC(=O)NS5(=O)=O)c(F)c4c3)C2)c1 [Compound 194, 5-(7-{1-[(3-aminophenyl)methanesulfonyl]-2,5-dihydro-1H-pyrrol-3-yl}-1-fluoro-3-hydroxynaphthalen-2-yl)-1λ^6,2,5-thiadiazolidine-1,1,3-trione]",< 1
11,"O=C1CN(c2c(O)cc3ccc(CC(F)F)cc3c2F)S(=O)(=O)N1 [Compound 196, 5-[7-(2,2-difluoroethyl)-1-fluoro-3-hydroxynaphthalen-2-yl]-1λ^6,2,5-thiadiazolidine-1,1,3-trione]",1 to 10
12,"O=C1CN(c2c(O)cc3ccc(OCC(F)(F)F)cc3c2F)S(=O)(=O)N1 [Compound 197, 5-[1-fluoro-3-hydroxy-7-(2,2,2-trifluoroethoxy)naphthalen-2-yl]-1λ^6,2,5-thiadiazolidine-1,1,3-trione]",1 to 10
13,"O=C1CN(c2c(O)cc3ccc(NCC4CC4)cc3c2F)S(=O)(=O)N1 [Compound 202, 5-{7-[(cyclopropylmethyl)amino]-1-fluoro-3-hydroxynaphthalen-2-yl}-1λ^6,2,5-thiadiazolidine-1,1,3-trione]",1 to 10
14,"CC(C)CCCc1ccc2cc(O)c(N3CC(=O)NS3(=O)=O)c(F)c2c1 [Compound 219, 5-[1-fluoro-3-hydroxy-7-(4-methylpentyl)naphthalen-2-yl]-1λ^6,2,5-thiadiazolidine-1,1,3-trione]",1 to 10
15,"Cc1c[nH]c(-c2ccc3cc(O)c(N4CC(=O)NS4(=O)=O)c(F)c3c2)n1 [Compound 225, 5-[1-fluoro-3-hydroxy-7-(4-methyl-1H-imidazol-2-yl)naphthalen-2-yl]-1λ^6,2,5-thiadiazolidine-1,1,3-trione]",10 to 100
